Each structure is given as a SMILES string. A value given as a limit tells only on which side of the number the result lay.

Holding throughout (type): physicochemical
A short description of data set [1]: Thermodynamic stability of the crystalline form. To be noted: at least between 20° C. and 60° C. An excerpt: The XRPD pattern can be obtained by following protocols known in the field.
The nature of data set [2]: Stability in suspension vehicle and parenteral formulation. To be noted: 0.5% HPC/1% Tween 80, up to 5 weeks at RT. The method, then: For parenteral administration, a 30% Kleptose formulation (1.5 mg/ml, physiologic osmolality, pH 6.2), with a stability of at least 4 weeks at 40° C. was developed.
A short description of data set [3]: Preliminary forced degradation study (acidic, basic, oxidative, photolytic stress) and excipient compatibility. On the procedure: (§1) Stability: Preliminary forced degradation study of the crystalline form of the free base of the compound of Formula I in acidic, basic, oxidative, and photolytic stress conditions was conducted to investigate the viability of the crystalline form in various stress conditions. Since the solubility of the compound of Formula I was low in the standard solvent ethanol, ethanol was replaced by N-methyl-2-pyrrolidone (NMP).
The crystalline form of the free base of the compound of Formula I was stable for up to 8 days in solid state at 80° C. and in solution at pH 3 to pH 7 at RT. […] The crystalline form was stable after exposure to light in solid state.

A short description of data set [4]: Solubility of the crystalline form in aqueous media, simulated fluids and organic solvents. To be noted: in the presence of surfactants (e.g., Tween-80, sodium dodecyl sulfate, dioctyl sulfosuccinate, Pluronic F68) and cyclodextrins. On the procedure:
Solubility in simulated gastric fluid (SGF), fasted state simulated intestinal fluid (FaSSIF), and fed state simulated intestinal fluid (FeSSIF) was 0.019 mg/ml, 0.006 mg/mL, and 0.022 mg/mL, respectively. Solubility increased 50-100-fold in the presence of surfactants (e.g., Tween-80, sodium dodecyl sulfate, dioctyl sulfosuccinate, or Pluronic F68) and cyclodextrins; however it was still rather low.

The nature of data set [5]: Preliminary solid state stability, UPLC analysis after storage. On the procedure: as §1
A defined amount of the crystalline form of the free base of the compound of Formula I (0.2-0.8 mg) was weighed into a 1.8 mL HPLC vial and stored open (75% RH) or closed (ambient) at the temperature and the time indicated. After incubation, compound was dissolved in 1-1.5 mL NMP to a final concentration of 0.2-0.5 mg/mL and submitted to UPLC analysis (254 nm).

In the case of `Cn1ncc(C(=O)N2CCOCC2)c1C(=O)Nc1ccn2nc(-c3ccccc3)nc2c1` [1-methyl-4-(morpholine-4-carbonyl)-N-(2-phenyl[1,2,4]triazolo[1,5-a]pyridin-7-yl)-1H-pyrazole-5-carboxamide], in data set [1], the Thermodynamic stability result is on record as “thermodynamically stable”. Besides, the “Particle growth and hydrate formation in suspension vehicle” value in data set [2] was “only minor particle growth and no hydrate formation”. Besides, the “Stability in suspension vehicle” value in data set [2] is “stable”. Further, the “Excipient compatibility (CompaS assay)” value in data set [3] is “compatible with almost all excipients”. Also, the Stability towards oxidation entry is given as “stable” in data set [3] (1 day) and “some sensitivity” in data set [3] (prolonged exposure). Besides, the Stability towards daylight entry in data set [3] (in solution) is “stable”. Also, in data set [3] (in solution at pH 3 to pH 7 at RT, up to 8 days), the Stability in solution entry is listed as “stable”. For the same compound, the “Stability in solution at higher or lower pH” value in data set [3] (in solution, pH higher than 7 or lower than 3) is recorded as “degradation was observed”. The “Stability in the Suntest” value in data set [3] (in solution, time dependent) was “moderately stable to unstable”. The “Stability after exposure to light” value in data set [3] (solid state) was “stable”. In data set [3] (solid state at 80° C., up to 8 days), the “Stability in solid state” value is listed as “stable”. For the same compound, in data set [4], the Solubility increase was 50-100 fold. The Degradation products in data set [5] (solid state at various temperatures) is below 0.5%. The “UPLC analysis (Area % main peak)” value in data set [5] (solid state, 4 w, 4° C.) was 100 Area %; in data set [5] (solid state, 4 w, 40° C.), 100 Area %; in data set [5] (solid state, 4 w, 40° C., 75% RH), 100 Area %; in data set [5] (solid state, 4 w, 60° C.) it was 100 Area %; in data set [5] (solid state, 4 w, RT), 100 Area %; in data set [5] (solid state, 1 h, 80° C.), 100 Area %. The “UPLC analysis (Area % main peak)” value in data set [5] (solid state, 1 d, 80° C.) was 100 Area %; in data set [5] (solid state, 8 d, 80° C.), 100 Area %. Besides, the “Time stable in solid state” value in data set [5] (solid state, 40-60° C.) is on record as “at least 4 weeks”.

These data come from patent US12544364B2, “Use of a phosphodiesterase 10 inhibitor for the treatment of tourette syndrome” (Noema Pharma AG, priority 2020, dated 2026).
